Measurements published in patent US20200069609A1 (WIGEN BIOMEDICINE TECHNOLOGY (SHANGHAI) CO., LTD., priority 2017, published 2020).

What was measured:
GST-LC3B = molecular target: T1, GST-LC3B (Homo sapiens, UniProt Q9GZQ8); test: Fluorescence polarization (FP) assay, GST-LC3B with FITC-labeled peptide; assay type: binding; details: GST-LC3B 180 nM, FITC-labeled peptide 18 nM
T1 construct: This fusion protein was used directly in the fluorescence polarization assay; made in house
Experimental: (§1) GST-LC3B (1-125) (SEQ ID NO: 2) and each mutant protein were expressed by IPTG induction in DE3 competent cells at 16° C. After collecting and resuspending DE3 competent cells, the cells were sonicated and centrifuged. The resulted supernatant was hanged on the column (GSTrap FF, GE), followed by eluting with glutathione-containing eluant, and then the target protein was produced by gel filtration chromatography. This fusion protein was used directly in the fluorescence polarization assay. The proteins used in the protein thermal shift assay, mass spectrometry, and protein crystallization experiments were produced by PP enzyme or thrombin digestion and the following gel filtration chromatography to the GST-fusion protein obtained by the above method.
Recombinant protein GST-LC3B (final concentration 180 nM) (SEQ ID NO: 2) and N-terminal FITC-labeled peptide (SEQ ID NO: 5, final concentration 18 nM) were placed in FP buffer solution (50 mM HEPES pH 7.5, 0.1 mg/ml BSA and 1 mM DTT), into which the compound gradually diluted by the FP buffer was added, then the resulted mixture was incubated in dark at 25° C. Fluorescence polarization values were monitored (PerkinElmer Envision, the wavelength of the […]) and the IC50 values were calculated by the GraphPad Prism 6.0 program.
Representation of the IC50 value of the compounds: “[…]<IC50≤1 mM” is considered as having low activity (+) against LC3B. “15 μM<<IC50≤100 μM” of the compound is considered as having moderate activity (++) against LC3B. “3 μM<IC50≤15 μM” is considered as having high activity (+++) against LC3B. “IC50≤3 μM” is considered as having higher activity (++++) against LC3B.

LC3B (1-125) [1] = molecular target: T2, LC3B (1-125) (Homo sapiens, UniProt Q9GZQ8); test: Protein thermal shift assay; assay type: binding; details: protein 4 μM, compound 40 μM
T2 construct: GST (N, cleaved yes); made in house
Experimental: as §1
(§2) The protein thermal shift assay is used to test the effect of compounds on the thermodynamic stability of proteins via the Quant Studio 6 Flex Real-Time PCR system. Protein LC3B (1-125) (SEQ ID NO: 3) and each mutant protein (SEQ ID NO: 7-15) (final concentration 4 μM), environmentally sensitive dye (5×SYPRO orange, Invitrogen) and compound (final concentration 40 μM) were mixed in the buffer solution (50 mM HEPES pH 7.5, 1 mM DTT) to a total volume of 20 μL. The sample was heated from 25° C. to 95° C. with a heating rate of 3%. Changes in fluorescence intensity were monitored and each melting temperature (Tm), represented by AT in the unit of ° C., was calculated by Protein Thermal Shift Software 1.1 (ABI).

LC3B (2-119) = molecular target: T3, LC3B (2-119) (Homo sapiens, UniProt Q9GZQ8); test: Crystal complex structure of LC3B protein and small molecule; details: crystal soaked with compound 1-5 mM
T3 construct: GST (N, cleaved yes); made in house
Experimental: A vacant protein crystal of LC3B (2-119) (SEQ ID NO: 4) was obtained by the sit-drop method, and then the crystal was taken out and soaked in a bath containing Compound A with a final concentration of 1-5 mM. The diffraction data were collected at the 19U1 line station of Shanghai Synchrotron Radiation Facility. And the diffraction data were integrated by XDS software and then compressed by Aimless module in CCP4. The LC3B protein structure with a PDB number of 3VTU was used as a template to perform molecular replacement by Phaser module to obtain the initial phase information, and then final refinement was performed by PHENIX and COOT.

[2] = tested on: LC3B mutants K8A, K30A, K39A, K42A, K51A, K65A, K103A, K122A; test: Protein thermal shift assay on lysine-to-alanine mutants other than K49A; assay type: binding, human; details: all lysine-to-alanine mutants except K49A; protein 4 μM, compound 40 μM
Experimental: as §2
(§3) LC3B totally has 9 lysines, and for investigating the site selectivity of Compound A, all the 9 lysines were mutated to alanine (K8A, K30A, K39A, K42A, K49A, K51A, K65A, K103A, K122A; SEQ ID NO:7-15).

LC3B K49A mutant = molecular target: T4, LC3B K49A mutant (Homo sapiens, UniProt Q9GZQ8, K49A); test: Protein thermal shift assay on K49A mutant; assay type: binding
T4 construct: GST (N, cleaved yes); made in house
Experimental: as §2, §3

LC3B (1-125) [3] = molecular target: T2, LC3B (1-125); test: Mass spectrometry of LC3B incubated with compound; details: trypsin digest, b and y type ions
Experimental: For further verifying the covalent binding, LC3B (1-125) (SEQ ID NO: 3) protein was separately incubated with compounds B, C and D for mass spectrometry.
After incubating the compound and protein for a given period of time, the product was separated by gel electrophoresis, and the protein having an appropriate size was digested by trypsin. The resulting polypeptide was dissolved and loaded onto a C18 reverse-phase column coupled to an EASY-nLC 1000 system. The polypeptide was eluted to perform mass spectrometry and Mascot search.

Hela cells = test: Immunofluorescence staining of autophagosomes in Hela cells; assay type: cell-based; details: 30 μM or 100 μM for 12 h, then serum-free starvation 24 hours; compared with control group
Experimental: For further investigating the effects of compounds on cell autophagosomes, Hela cells were seeded onto glass coverslips in 6-well plate and cultured until the cells being in good conditions, which were treated with 30 μM or 100 μM of Compound B for 12 h, then replaced to a serum-free medium and starved for 24 hours. The cells were pre-cooled for 10 minutes, then punched with 0.2% Triton X-100 and stood at room temperature for 10 minutes. Next, the cells were blocked with PBS containing 2.5% BSA and incubated overnight with a 4 degree anti-LC3B primary antibody, after which the primary antibody was recognized with a fluorescent secondary antibody, the nuclei were stained with DAPI and photographed under a microscope.

Row | IC50 (GST-LC3B; Table 1, 25° C.) | ΔT (melting temperature shift) (LC3B (1-125) [1]; Table 1) | IC50 (GST-LC3B; Table 2, comparative compounds) | ΔT (melting temperature shift) (LC3B (1-125) [1]; Table 2, comparative compounds) | Compound | also measured
1 | 0.51 µM | 13.4 °C | – | – | O=C1CC(c2cccc3[nH]ccc23)CC(=O)C1=CO (stereo not drawn) [Compound I, 2-(hydroxy-methylene)-5-(1H-indol-4-yl)cyclohexane-1,3-dione] | covalent linkage in crystal complex (LC3B (2-119)): covalently linked to the lysine residue (ε-amino group) at position 49 in LC3B
2 | – | – | 47 µM | 0 °C | Cc1ccc2c(C)c(C(=O)Nc3ccc(S(=O)(=O)Nc4onc(C)c4C)cc3)oc2c1 [compound 6, reference compound] | –
3 | – | – | 28 µM | 2.1 °C | CCOc1c(I)cc(/C=N\Nc2ccc(C(=O)O)cc2)cc1OC [compound 3, reference compound] | –
4 | 1.46 µM | 10.82 °C | – | – | COc1ccc(C2CC(=O)C(=CN(C)C)C(=O)C2)cc1 (stereo not drawn) [Compound D, 2-((Dimethylamino)methyl-ene)-5-(4-methoxyphenyl) cyclohexane-1,3-dione] | covalent modification of LC3B by mass spectrometry (LC3B (1-125) [3]): covalently modified the lysine at position 49 in LC3B
5 | 4.83 µM | 9.83 °C | – | – | 5-phenyl-2- (((2-(4-(benzoyl) piperazin-1-yl) ethyl)amino) methylene) cyclohexane-1,3- dione [G] | –
6 | – | – | 50 µM | 0 °C | Cc1ccc(C(=O)O)c(C(=O)Nc2ccc(-c3nc4ccc(C)cc4s3)cc2)c1 [compound 2, reference compound] | –
7 | – | – | 46 µM | 0 °C | CC1=CCC(C(=O)O)C(C(=O)Nc2ccc(-c3nc4ccc(C)cc4s3)cc2)C1 (stereo not drawn) [compound 1, reference compound] | –
8 | 6.54 µM | – | – | – | CCNC(=S)N1CCN(CCNC=C2C(=O)CC(c3ccccc3)CC2=O)CC1 (stereo not drawn) [F, 5-phenyl-2-(((2-(4-(ethyl-aminothiocarbonyl)piperazin-1-yl)ethyl)amino)methylene) cyclohexane-1,3-dione] | –
9 | 28.8 µM | 2.87 °C | – | – | NC=C1C(=O)CC(c2ccccc2)CC1=O (stereo not drawn) [Compound C, 2-(aminomethyl-ene)-5-phenyl-cyclohexane-1,3-dione] | covalent modification of LC3B by mass spectrometry (LC3B (1-125) [3]): covalently modified the lysine at position 49 in LC3B
10 | – | – | 28 µM | 1.8 °C | Cc1cc(NS(=O)(=O)c2ccc(NC(=O)c3ccc(C(=O)Nc4ccc(S(=O)(=O)Nc5cc(C)on5)cc4)cc3)cc2)no1 [compound 4, reference compound] | –
11 | 5 µM | – | – | – | Cc1ccc(C2CC(=O)C(=CNCCN3CCN(C(=O)C(C)C)CC3)C(=O)C2)cc1 (stereo not drawn) [H] | –
12 | – | – | – | – | Cc1ccc(NC(=O)CN2CCN(CCNCC3C(=O)CC(c4ccc(C)cc4)CC3=O)CC2)cc1 (stereo not drawn) [Compound B] | cell autophagosomes (anti-LC3B immunofluorescence) (Hela cells): cell autophagosomes accumulated
13 | – | – | – | – | LBP2: positive control polypeptide, LBP2 (SEQ ID NO: 6) (GGDDDWTHLSSKEVD; LBP2) [reference compound] | thermal shift of LC3B mutants [2]: significant heat shift; thermal shift of LC3B K49A mutant (LC3B K49A mutant; K49A mutant, protein 4 μM, compound 40 μM): significant heat shift

Row | Compound | IC50 (GST-LC3B; Table 1, 25° C.) | ΔT (melting temperature shift) (LC3B (1-125) [1]; Table 1) | IC50 (GST-LC3B; Table 2, comparative compounds) | ΔT (melting temperature shift) (LC3B (1-125) [1]; Table 2, comparative compounds) | also measured
14 | Cc1ccc(NC(=O)CN2CCN(CCNC=C3C(=O)CC(c4ccccc4)CC3=O)CC2)cc1 (stereo not drawn) [E] | 5 µM | 10.21 °C | – | – | –
15 | 2-((Dimethyl amino)methyl- ene)-5-(tlhio- phen-2-yl)cyclo- hexane-1,3- dione [Compound A] | 1.56 µM | 10.37 °C | – | – | thermal shift of LC3B mutants [2]: significant thermal shift; site selectivity for lysine at position 49 in LC3B (LC3B K49A mutant; concluded from thermal shift of the 9 lysine mutants): selectively modify the lysine at position 49; covalent linkage in crystal complex (LC3B (2-119)): covalently linked to the lysine residue (ε-amino group) at position 49 in LC3B
